# Source: ChEMBL document CHEMBL4177608, “Design and synthesis of benzimidazole-based Rho kinase inhibitors for the treatment of glaucoma” (Bioorg Med Chem, 2017)
# Key:
# [1] = 1-Octanol/water partition coefficient, log P of compound at 2 mg after 24 hrs by spectrophotometry based shake flask method; format: physicochemical
# [2] = Antioxidant activity assessed as DPPH free radical scavenging activity at 5 ug/ml after 30 mins by spectrophotometric analysis; format: functional
# [3] = Antioxidant activity assessed as DPPH free radical scavenging activity at 25 ug/ml after 30 mins by spectrophotometric analysis; format: functional
# [4] = Antioxidant activity assessed as DPPH free radical scavenging activity at 50 ug/ml after 30 mins by spectrophotometric analysis; format: functional
# [5] = Antioxidant activity assessed as DPPH free radical scavenging activity at 100 ug/ml after 30 mins by spectrophotometric analysis; format: functional
# [6] = Antioxidant activity assessed as DPPH free radical scavenging activity at 150 ug/ml after 30 mins by spectrophotometric analysis; format: functional
# [7] = Antioxidant activity assessed as DPPH free radical scavenging activity at 200 ug/ml after 30 mins by spectrophotometric analysis; format: functional
# [8] = Antioxidant activity assessed as DPPH free radical scavenging activity after 30 mins by spectrophotometric analysis; format: functional
# Rattus norvegicus [9] = species on record: Rattus norvegicus; test: Reduction in intraocular pressure in Wistar rat model of dexamethasone-induced elevated IOP assessed as change in intraocular pressure at 1 % w/v after 0.5 hrs by tonometry (reference value: 0%); format: functional; parameters: scale not given: the % may be the effect or the level left
# Rattus norvegicus [10] = species on record: Rattus norvegicus; test: Reduction in intraocular pressure in Wistar rat model of dexamethasone-induced elevated IOP assessed as change in intraocular pressure at 1 % w/v after 1 hr by tonometry (reference value: 0%); format: functional; parameters: scale not given: the % may be the effect or the level left
# Rattus norvegicus [11] = species on record: Rattus norvegicus; test: Reduction in intraocular pressure in Wistar rat model of dexamethasone-induced elevated IOP assessed as change in intraocular pressure at 1 % w/v after 1.5 hrs by tonometry (reference value: 0%); format: functional; parameters: scale not given: the % may be the effect or the level left
# Rattus norvegicus [12] = species on record: Rattus norvegicus; test: Reduction in intraocular pressure in Wistar rat model of dexamethasone-induced elevated IOP assessed as change in intraocular pressure at 1 % w/v after 2 hrs by tonometry (reference value: 0%); format: functional; parameters: scale not given: the % may be the effect or the level left
# Rattus norvegicus [13] = species on record: Rattus norvegicus; test: Reduction in intraocular pressure in Wistar rat model of dexamethasone-induced elevated IOP assessed as change in intraocular pressure at 1 % w/v after 2.5 hrs by tonometry (reference value: 0%); format: functional; parameters: scale not given: the % may be the effect or the level left
# Rattus norvegicus [14] = species on record: Rattus norvegicus; test: Reduction in intraocular pressure in Wistar rat model of dexamethasone-induced elevated IOP assessed as change in intraocular pressure at 1 % w/v after 3 hrs by tonometry (reference value: 0%); format: functional; parameters: scale not given: the % may be the effect or the level left
# Rattus norvegicus [15] = species on record: Rattus norvegicus; test: Reduction in intraocular pressure in Wistar rat model of dexamethasone-induced elevated IOP assessed as change in intraocular pressure at 1 % w/v after 4 hrs by tonometry (reference value: 0%); format: functional; parameters: scale not given: the % may be the effect or the level left
# Rattus norvegicus [16] = species on record: Rattus norvegicus; test: Reduction in intraocular pressure in Wistar rat model of dexamethasone-induced elevated IOP assessed as change in intraocular pressure at 1 % w/v after 5 hrs by tonometry (reference value: 0%); format: functional; parameters: scale not given: the % may be the effect or the level left
# Rattus norvegicus [17] = species on record: Rattus norvegicus; test: Reduction in intraocular pressure in Wistar rat model of dexamethasone-induced elevated IOP assessed as change in intraocular pressure at 1 % w/v after 6 hrs by tonometry (reference value: 0%); format: functional; parameters: scale not given: the % may be the effect or the level left
# Rattus norvegicus [18] = species on record: Rattus norvegicus; test: Reduction in intraocular pressure in Wistar rat model of dexamethasone-induced elevated IOP assessed as change in intraocular pressure in contralateral eye at 1 % w/v after 0.5 hrs by tonometry (reference value: 0%); format: ADME, organism-based; parameters: scale not given: the % may be the effect or the level left; details: in vivo, topical_or_ocular
# Rattus norvegicus [19] = species on record: Rattus norvegicus; test: Reduction in intraocular pressure in Wistar rat model of dexamethasone-induced elevated IOP assessed as change in intraocular pressure in contralateral eye at 1 % w/v after 1 hr by tonometry (reference value: 0%); format: ADME, organism-based; parameters: scale not given: the % may be the effect or the level left; details: in vivo, topical_or_ocular
# Rattus norvegicus [20] = species on record: Rattus norvegicus; test: Reduction in intraocular pressure in Wistar rat model of dexamethasone-induced elevated IOP assessed as change in intraocular pressure in contralateral eye at 1 % w/v after 1.5 hrs by tonometry (reference value: 0%); format: ADME, organism-based; parameters: scale not given: the % may be the effect or the level left; details: in vivo
# Rattus norvegicus [21] = species on record: Rattus norvegicus; test: Reduction in intraocular pressure in Wistar rat model of dexamethasone-induced elevated IOP assessed as change in intraocular pressure in contralateral eye at 1 % w/v after 2 hrs by tonometry (reference value: 0%); format: ADME, organism-based; parameters: scale not given: the % may be the effect or the level left; details: in vivo
# Rattus norvegicus [22] = species on record: Rattus norvegicus; test: Reduction in intraocular pressure in Wistar rat model of dexamethasone-induced elevated IOP assessed as change in intraocular pressure in contralateral eye at 1 % w/v after 2.5 hrs by tonometry (reference value: 0%); format: ADME, organism-based; parameters: scale not given: the % may be the effect or the level left; details: in vivo
# Rattus norvegicus [23] = species on record: Rattus norvegicus; test: Reduction in intraocular pressure in Wistar rat model of dexamethasone-induced elevated IOP assessed as change in intraocular pressure in contralateral eye at 1 % w/v after 3 hrs by tonometry (reference value: 0%); format: ADME, organism-based; parameters: scale not given: the % may be the effect or the level left; details: in vivo
# Rattus norvegicus [24] = species on record: Rattus norvegicus; test: Reduction in intraocular pressure in Wistar rat model of dexamethasone-induced elevated IOP assessed as change in intraocular pressure in contralateral eye at 1 % w/v after 4 hrs by tonometry (reference value: 0%); format: ADME, organism-based; parameters: scale not given: the % may be the effect or the level left; details: in vivo
# Rattus norvegicus [25] = species on record: Rattus norvegicus; test: Reduction in intraocular pressure in Wistar rat model of dexamethasone-induced elevated IOP assessed as change in intraocular pressure in contralateral eye at 1 % w/v after 5 hrs by tonometry (reference value: 0%); format: ADME, organism-based; parameters: scale not given: the % may be the effect or the level left; details: in vivo
# Rattus norvegicus [26] = species on record: Rattus norvegicus; test: Reduction in intraocular pressure in Wistar rat model of dexamethasone-induced elevated IOP assessed as change in intraocular pressure in contralateral eye at 1 % w/v after 6 hrs by tonometry (reference value: 0%); format: ADME, organism-based; parameters: scale not given: the % may be the effect or the level left; details: in vivo
# Rattus norvegicus [27] = species on record: Rattus norvegicus; test: Reduction in intraocular pressure in Wistar rat model of dexamethasone-induced elevated IOP assessed as onset time for reduction in intraocular pressure at 1 % w/v by tonometry; format: functional
# Rattus norvegicus [28] = species on record: Rattus norvegicus; test: Reduction in intraocular pressure in Wistar rat model of dexamethasone-induced elevated IOP assessed as peak effect time for reduction in intraocular pressure at 1 % w/v by tonometry; format: functional, organism-based
# Rattus norvegicus [29] = species on record: Rattus norvegicus; test: Reduction in intraocular pressure in Wistar rat model of dexamethasone-induced elevated IOP assessed as reduction in intraocular pressure at peak effect time at 1 % w/v by tonometry; format: functional; parameters: scale not given: the % may be the effect or the level left
Structure (SMILES),logP at 24 h [1],Activity [2] [%],Activity [3] [%],Activity [4] [%],Activity [5] [%],Activity [6] [%],Activity [7] [%],IC50 [8] [µg/mL],Activity (Rattus norvegicus [9]) [%],Activity (Rattus norvegicus [10]) [%],Activity (Rattus norvegicus [11]) [%],Activity (Rattus norvegicus [12]) [%],Activity (Rattus norvegicus [13]) [%],Activity (Rattus norvegicus [14]) [%],Activity (Rattus norvegicus [15]) [%],Activity (Rattus norvegicus [16]) [%],Activity (Rattus norvegicus [17]) [%],Activity (Rattus norvegicus [18]) [%],Activity (Rattus norvegicus [19]) [%],Activity (Rattus norvegicus [20]) [%],further results
O=C(CN1CCN(c2ncccn2)CC1)Nc1nc2ccccc2[nH]1,1.85,8.77,20.4,31,46.5,68.4,81.8,107.77,3.5,7.42,10.92,15.45,11.77,9.1,5.62,3.15,0.35,0.95,1.85,2.05,Activity (Rattus norvegicus [21]): 3.97%; Activity (Rattus norvegicus [22]): 2.1%; Activity (Rattus norvegicus [23]): 0.42%; Activity (Rattus norvegicus [24]): 0%; Activity (Rattus norvegicus [25]): 0%; Activity (Rattus norvegicus [26]): 0%; Time (Rattus norvegicus [27]): 0.5 h; Tmax (Rattus norvegicus [28]): 2 h; Activity (Rattus norvegicus [29]): 50%
COc1ccc(N2CCN(CC(=O)Nc3nc4ccccc4[nH]3)CC2)cc1,2.65,7.24,13.3,25.8,38.9,53.2,63.7,144.19,3.8,5.67,6.15,9.42,15.32,10.08,7,3.37,1.33,1.2,2.07,2.83,Activity (Rattus norvegicus [21]): 3.57%; Activity (Rattus norvegicus [22]): 3.97%; Activity (Rattus norvegicus [23]): 2%; Activity (Rattus norvegicus [24]): 0.43%; Activity (Rattus norvegicus [25]): 0%; Activity (Rattus norvegicus [26]): 0%; Time (Rattus norvegicus [27]): 0.5 h; Tmax (Rattus norvegicus [28]): 2.5 h; Activity (Rattus norvegicus [29]): 46.92%
O=C(CN1CCN(c2ccccn2)CC1)Nc1nc2ccccc2[nH]1,1.05,30.8,40.9,50,57.3,69.1,76.2,69.97,4,7,10,15.87,10.62,7.82,5.05,2.87,0.65,0.85,1.15,2,Activity (Rattus norvegicus [21]): 4%; Activity (Rattus norvegicus [22]): 1.07%; Activity (Rattus norvegicus [23]): 0.65%; Activity (Rattus norvegicus [24]): 0%; Activity (Rattus norvegicus [25]): 0%; Activity (Rattus norvegicus [26]): 0%; Time (Rattus norvegicus [27]): 0.5 h; Tmax (Rattus norvegicus [28]): 2 h; Activity (Rattus norvegicus [29]): 51.38%
O=C(CN1CCN(CCc2ccccc2)CC1)Nc1nc2ccccc2[nH]1,1.89,8.11,13.5,22.3,38.1,51.8,62.9,148.39,2.53,5.52,8.97,10.17,11.95,7.1,3.76,0.83,0.4,1.23,2.07,2.9,Activity (Rattus norvegicus [21]): 3.63%; Activity (Rattus norvegicus [22]): 2.43%; Activity (Rattus norvegicus [23]): 1.67%; Activity (Rattus norvegicus [24]): 0.83%; Activity (Rattus norvegicus [25]): 0.43%; Activity (Rattus norvegicus [26]): 0%; Time (Rattus norvegicus [27]): 0.5 h; Tmax (Rattus norvegicus [28]): 2 h; Activity (Rattus norvegicus [29]): 37.15%
